Assay results taken from patent publication US7629320B2, “Nucleoside derivatives for treating hepatitis C virus infection” (SmithKline Beecham Corporation, priority 2002, dated 2009).

Assays:
[1] = patients treated at currently recommended doses; cited from earlier work
[2] = system: HCV; assay: activity of Example 26 (test not stated; patent concerns anti-hepatitis C activity); conditions: test not specified

NC(=O)c1ncn([C@@H]2O[C@H](CO)[C@@H](O)[C@H]2O)n1 [Ribavirin, 1-β-D-ribofuranosyl-1H-1,2,-4-triazole-3-carboxamide]
patients with significant hemolysis [1]: 10-20%

O=P(O)(O)OP(=O)(O)OP(=O)(O)OC[C@H]1O[C@@H](n2cnc3c(NO)ncnc32)[C@H](O)[C@@H]1O [Example 26, 6-Hydroxylamino-9-β-D-ribofuranosylpurine 5′-Triphosphate]
activity (stated in words) [2]: inactive
